Reference: article PMC10100792, “Host-Erythrocytic Sphingosine-1-Phosphate Regulates Plasmodium Histone Deacetylase Activity and Exhibits Epigenetic Control over Cell Death and Differentiation” (Microbiology Spectrum, 2023)

How the values were obtained:
hHDAC-1 = target: T1, hHDAC-1 (Homo sapiens, UniProt Q13547); test: microscale thermophoresis; assay type: binding
T1 construct: gene HDAC1

[1] = target: T2, PfHDAC-1 (histone deacetylase-1) (Plasmodium falciparum, UniProt Q9XYC7); test: microscale thermophoresis; also lipid overlay, S1P-bead pull-down, and […] inhibition of the recombinant enzyme at […]; assay type: binding; parameters: gene HDAC1; full-length, 6×His-PfHDAC-1 (1380 bp CDS from Pf3D7)
T2 sequence (Q9XYC7 1-449): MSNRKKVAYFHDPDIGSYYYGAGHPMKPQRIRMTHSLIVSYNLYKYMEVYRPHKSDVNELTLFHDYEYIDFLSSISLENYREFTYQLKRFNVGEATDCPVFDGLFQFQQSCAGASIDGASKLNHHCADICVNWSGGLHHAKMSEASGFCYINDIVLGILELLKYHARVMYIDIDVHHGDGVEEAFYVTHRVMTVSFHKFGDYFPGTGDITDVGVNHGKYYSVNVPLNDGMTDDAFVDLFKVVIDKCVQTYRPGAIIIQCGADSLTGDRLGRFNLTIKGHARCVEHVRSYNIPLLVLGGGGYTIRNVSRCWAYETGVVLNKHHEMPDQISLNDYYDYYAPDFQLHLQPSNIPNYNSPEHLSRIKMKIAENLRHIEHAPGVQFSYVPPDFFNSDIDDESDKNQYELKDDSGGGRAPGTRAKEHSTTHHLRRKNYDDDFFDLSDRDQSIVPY

[2] = target: T3, hSphK-1 (sphingosine kinase 1) (Homo sapiens, UniProt Q9NYA1); test: fluorometric conversion of NBD-Sph ([…]) to NBD-S1P by purified rSphK-1; assay type: biochemical
T3 construct: gene SPHK1; full-length, 6×His-SphK-1 (1155 bp CDS)
T3 sequence (Q9NYA1 whole entry): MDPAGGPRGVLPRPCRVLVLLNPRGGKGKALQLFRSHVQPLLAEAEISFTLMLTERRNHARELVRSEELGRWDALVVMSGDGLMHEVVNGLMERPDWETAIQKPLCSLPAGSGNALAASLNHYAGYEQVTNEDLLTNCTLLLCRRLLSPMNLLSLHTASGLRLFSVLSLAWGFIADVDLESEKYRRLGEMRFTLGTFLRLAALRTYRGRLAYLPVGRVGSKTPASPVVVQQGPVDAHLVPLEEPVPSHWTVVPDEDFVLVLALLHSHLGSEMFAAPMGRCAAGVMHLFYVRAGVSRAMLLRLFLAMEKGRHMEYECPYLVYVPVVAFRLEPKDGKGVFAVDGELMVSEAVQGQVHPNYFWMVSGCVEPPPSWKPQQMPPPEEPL

[3] = target: T2, PfHDAC-1 (histone deacetylase-1); test: biochemical; parameters: gene HDAC1

T1 sequence (Q13547 whole entry): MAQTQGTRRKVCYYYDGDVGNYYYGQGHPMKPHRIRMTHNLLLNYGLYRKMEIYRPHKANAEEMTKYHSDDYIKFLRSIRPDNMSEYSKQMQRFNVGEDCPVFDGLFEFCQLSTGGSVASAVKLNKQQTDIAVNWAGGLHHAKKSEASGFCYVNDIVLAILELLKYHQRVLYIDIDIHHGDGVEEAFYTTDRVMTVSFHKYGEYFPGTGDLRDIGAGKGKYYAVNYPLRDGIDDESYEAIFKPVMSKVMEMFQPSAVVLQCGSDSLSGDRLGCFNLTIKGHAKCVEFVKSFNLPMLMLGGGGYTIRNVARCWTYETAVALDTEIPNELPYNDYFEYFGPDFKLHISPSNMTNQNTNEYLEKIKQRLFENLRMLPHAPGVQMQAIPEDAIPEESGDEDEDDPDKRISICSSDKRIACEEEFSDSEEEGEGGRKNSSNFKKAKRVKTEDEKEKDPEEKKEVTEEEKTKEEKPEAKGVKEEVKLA

Structure (SMILES): CCCCCCCCCCCCC/C=C/[C@@H](O)[C@@H](N)COP(=O)(O)O [S1P, Sphingosine-1-Phosphate]
- Kd (hHDAC-1): 1610 ± 800 nM
- Kd [1]: 177 ± 24 nM

Structure (SMILES): N[C@@H](CO)[C@H](O)/C=C/CCCCCCCCCCCCCNc1ccc([N+](=O)[O-])c2nonc12 [NBD-Sph, NBD-Sphingosine]
- fluorometric conversion of NBD-Sph (10 μM) to NBD-S1P by purified rSphK-1 [2]: fluorimetry-based enzymatic assay using NBD-sphingosine

Structure (SMILES): O=C(CCCCCCC(=O)Nc1ccccc1)NO [SAHA, Suberoylanilide Hydroxamic Acid]
- Kd [3]: 2090 ± 450 nM
